Laboratory results published in article PMC7781899, “Synthesis of some quinazolinones inspired from the natural alkaloid L-norephedrine as EGFR inhibitors and radiosensitizers” (Journal of Enzyme Inhibition and Medicinal Chemistry, 2020).
Where two headings read alike, the source gives them in different places.

What was measured:
[1] = target: T1, EGFR (Homo sapiens, UniProt P00533); assay: EGFR kinase assay; format: biochemical; conditions: EGFR-TK inhibitory assay; means ± SE, three repeats
T1 construct: purchased Invitrogen
Procedure: An ATP solution and a kinase/peptide mixture were developed just before use. […] Then, […] of the prepared solution was added to each well. The plate was incubated for 1 h and determined by an ELISA Reader (PerkinElmer, USA). Curve fitting using Graph Pad Prism 5 was constructed. Each experiment was repeated three times. IC50 was represented as means ± SE.

[2] = tested on: HepG-2; assay: MTT cytotoxicity assay, HepG-2; format: cell-based, human; conditions: Homo sapiens
Procedure: (§1) The 96-well plate was incubated for 24 h before the MTT assay. […] Cells were cultured using DMEM supplemented with 10% foetal bovine serum, 10 µg/mL insulin and 1% penicillin–streptomycin. Reconstituted MTT (10%) was added and incubated for 2 h. Formazan crystals were dissolved by the MTT solubilizing solution after incubation. Absorbance was measured at a wavelength of 570 nm[28].

[3] = tested on: MCF-7; assay: MTT cytotoxicity assay, MCF-7; format: cell-based, human; conditions: Homo sapiens
Procedure: as §1

[4] = tested on: HCT-116; assay: MTT cytotoxicity assay, HCT-116; format: cell-based, human; conditions: Homo sapiens
Procedure: as §1

[5] = tested on: MDA-MB-231; assay: MTT cytotoxicity assay, MDA-MB-231; format: cell-based, human; conditions: Homo sapiens
Procedure: as §1

[6] = HepG2, MTT assay, mean of three experiments ± SE, read-out: IC50 HepG-2
[7] = MCF7, MTT assay, mean of three experiments ± SE, read-out: IC50 MCF-7
[8] = HCT-116, MTT assay, mean of three experiments ± SE, read-out: IC50 HCT-116
[9] = MDA-MB-231, MTT assay, mean of three experiments ± SE, read-out: IC50 MDA-MB-231

T1 sequence (P00533 25-1210): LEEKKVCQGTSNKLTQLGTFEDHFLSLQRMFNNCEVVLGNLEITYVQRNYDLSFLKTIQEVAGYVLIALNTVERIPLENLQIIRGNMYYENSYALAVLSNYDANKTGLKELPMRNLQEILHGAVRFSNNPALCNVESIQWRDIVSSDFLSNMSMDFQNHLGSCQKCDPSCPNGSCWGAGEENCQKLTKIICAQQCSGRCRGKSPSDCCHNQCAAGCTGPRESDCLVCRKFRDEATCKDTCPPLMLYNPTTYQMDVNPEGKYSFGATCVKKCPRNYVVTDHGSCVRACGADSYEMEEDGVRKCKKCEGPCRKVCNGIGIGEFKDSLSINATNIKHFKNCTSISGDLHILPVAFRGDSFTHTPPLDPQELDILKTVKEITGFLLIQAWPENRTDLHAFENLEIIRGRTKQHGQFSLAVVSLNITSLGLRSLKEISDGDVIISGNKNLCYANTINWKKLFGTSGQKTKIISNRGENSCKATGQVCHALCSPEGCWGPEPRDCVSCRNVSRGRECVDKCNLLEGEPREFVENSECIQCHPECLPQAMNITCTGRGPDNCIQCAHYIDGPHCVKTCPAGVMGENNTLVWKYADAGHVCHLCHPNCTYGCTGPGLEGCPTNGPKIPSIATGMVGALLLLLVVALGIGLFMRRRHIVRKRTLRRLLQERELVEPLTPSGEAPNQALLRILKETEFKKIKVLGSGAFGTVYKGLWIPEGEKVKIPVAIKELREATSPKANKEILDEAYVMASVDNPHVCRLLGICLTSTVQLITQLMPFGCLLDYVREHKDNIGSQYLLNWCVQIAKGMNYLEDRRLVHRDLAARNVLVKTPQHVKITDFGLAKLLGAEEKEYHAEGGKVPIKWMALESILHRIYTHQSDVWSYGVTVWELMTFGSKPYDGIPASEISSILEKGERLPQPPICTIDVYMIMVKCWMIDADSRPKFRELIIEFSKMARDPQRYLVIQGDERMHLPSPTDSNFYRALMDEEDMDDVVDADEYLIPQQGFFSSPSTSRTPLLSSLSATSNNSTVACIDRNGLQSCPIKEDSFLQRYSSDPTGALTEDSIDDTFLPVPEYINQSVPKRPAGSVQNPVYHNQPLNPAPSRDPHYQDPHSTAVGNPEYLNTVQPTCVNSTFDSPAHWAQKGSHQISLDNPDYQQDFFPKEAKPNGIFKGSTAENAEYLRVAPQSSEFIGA

Structure (SMILES) | melting point [°C] | IC50 [1] [µM] | IC50 [2, 6] [µM] | IC50 [3, 7] [µM] | IC50 [4, 8] [µM] | IC50 [5, 9] [µM] | IC50 ([2]; HepG2, read-out: IC50 HepG-2) [µM] | IC50 ([3]; MCF7, read-out: IC50 MCF-7) [µM] | IC50 ([4]; HCT-116, read-out: IC50 HCT-116) [µM] | IC50 ([5]; MDA-MB-231, read-out: IC50 MDA-MB-231) [µM]
Nn1c(O)nc2ccccc2c1=O [Compound 12, 3-Amino-2-hydroxyquinazolin-4(3H)-one] |  | 7.39 ± 0.28 | 20.5 ± 0.31 | 66.3 ± 0.72 | 50.75 ± 0.29 | 57.78 ± 0.43 |  |  |  | 
CCOc1nc2ccccc2c(=O)n1N [Compound 13, 3-amino-2-ethoxyquinazolin-4(3H)-one] |  | 8.35 ± 0.32 | > 100 | > 100 | > 100 | 81.43 ± 0.27 |  |  |  | 
O=c1c2ccccc2nc2[nH]n3c(=O)c4ccccc4nc3[nH]n12 [Compound 14, [1,2,4,5]tetrazino[3,2-b:6,5-b']diquinazoline-8,16(6H,14H)-dione] | 294.1 | 1.39 ± 0.27 | 41.25 ± 0.23 | 30.12 ± 0.19 | 29.32 ± 0.16 | 26.55 ± 0.04 |  |  |  | 
C#Cc1cccc(Nc2ncnc3cc(OCCOC)c(OCCOC)cc23)c1 [Erlotinib, reference compound] |  |  |  |  |  |  | 3.04 ± 0.2 | 4.48 ± 0.02 | 2.78 ± 0.04 | 3.73 ± 0.01

Continued, in another order:

melting point [°C] | IC50 [1] [µM] | Structure (SMILES) | IC50 [2, 6] [µM] | IC50 [3, 7] [µM] | IC50 [4, 8] [µM] | IC50 [5, 9] [µM] | IC50 ([2]; HepG2, read-out: IC50 HepG-2) [µM] | IC50 ([3]; MCF7, read-out: IC50 MCF-7) [µM] | IC50 ([4]; HCT-116, read-out: IC50 HCT-116) [µM] | IC50 ([5]; MDA-MB-231, read-out: IC50 MDA-MB-231) [µM]
147.5 | 3.87 ± 0.11 | CC(Nc1nc2ccccc2c(=O)n1N)C(O)c1ccccc1 (centres unmarked) [Compound 11, 3-amino-2-(1-hydroxy-1-phenylpropan-2-ylamino)quinazolin-4(3H)-one] | 33.65 ± 0.26 | 39.42 ± 0.3 | 44.15 ± 0.22 | 16.39 ± 0.06 |  |  |  | 
 | 1.09 ± 0.12 | CC1C(c2ccccc2)Oc2nc3ccccc3c(=O)n21 (centres unmarked) [Compound 15, 3-Methyl-2-phenyl-2H-oxazolo[2,3-b]quinazolin-5(3H)-one] | 28.5 ± 0.4 | 19.67 ± 0.13 | 26.51 ± 0.17 | 2.41 ± 0.03 |  |  |  | 
 | 1.02 ± 0.05 | CC1C(c2ccccc2)Oc2nc3ccccc3c(=O)n2C(C)C(c2ccccc2)Oc2nc3ccccc3c(=O)n21 (centres unmarked) [Compound 17, 8,18-dimethyl-7,17-diphenyl-7,8,17,18-tetrahydro-[1,6,3,8]dioxadiazecino[2,3-b:7,8-b']diquinazoline-10,20-dione] | 24.3 ± 0.18 | 20.1 ± 0.27 | 18.4 ± 0.2 | 5.45 ± 0.06 |  |  |  | 
 | 0.99 ± 0.04 | CC(Nc1nc2ccccc2c(=O)n1C(C)C(O)c1ccccc1)C(O)c1ccccc1 (centres unmarked) [Compound 18, 3-(1-hydroxy-1-phenylpropan-2-yl)-2-(1-hydroxy-1-phenylpropan-2-ylamino)quinazolin-4(3H)-one] | 50 ± 0.13 | 62.59 ± 0.18 | 44.9 ± 0.52 | 62.94 ± 0.1 |  |  |  | 
